# Measurements published in publication PMC11093748, “De novo identification of CD4^+ T cell epitopes” (Nature Methods, 2024).
# Key:
# Jurkat cells, No TCR = test: Single SABR-II co-incubation, background without TCR; format: cell-based, human; conditions: No TCR
# Excerpt: (§1) We performed systematic screening of the cloned TCRs against the I-Ag7 SABR-II library. Several TCRs along with a positive control (such as BDC2.5 or 4-8Ins) were screened individually against the library for each sort (Extended Data Fig. 6a and Supplementary Table 4). High- and low-confidence ES zones for each screened TCR were defined by the ES values of the control TCR’s cognate epitopes. For all putative cognate epitopes, single SABR-IIs were constructed, expressed in NFAT–GFP Jurkat cells and used for co-incubation with the corresponding TCRs. Co-incubation assays that yielded a GFP signal higher than that obtained in assays with no TCR were determined to be positive and the epitopes deemed true cognate ligands (Extended Data Fig. 6b,c). Using this strategy, we obtained epitopes in the high-confidence zone for eight TCRs (Fig. 3a and Extended Data Fig. 6b,d). Among numerous altered peptide ligands (APLs), these TCRs recognized the physiological InsC-ChgA HIP ([…] and analogs, recognized by TCR5, TCR6B, TCR9 and TCR34), InsC-Iapp HIP ([…] and analogs, recognized by TCR4 and TCR15) and InsB9:23 ([…] and analogs recognized by TCR24 and TCR37). These cognate high-confidence hits were validated using single SABR-II co-incubation assays (Fig. 3b and Extended Data Fig. 7a). Further validations using in vitro mouse interleukin-2 (mIL-2) secretion by TCR-expressing 5KC reporter cells[13] or CD25 expression by TCR-expressing splenic CD4^+ T cells upon stimulation with the cognate epitope were performed (Extended Data Fig. 7b,c). Furthermore, low-confidence hits were called for ten TCRs and tested in co-incubation assays.
# (§2) For SABR library screens, 3 × 10^6 NFAT–GFP Jurkat cells expressing the SABR library were labeled with CellTrace Violet (BioLegend) according to the manufacturer’s protocol before incubation with 3 × 10^6 Jurkat cells expressing the TCR of interest. These mixtures were incubated in a six-well plate for 16–20 h. Cells were stained with anti-CD69-APC-Cy7 where indicated (BioLegend) and the top 1–2% of GFP^+CD69^+ cells were sorted for genomic DNA extraction, indexing and sequencing (see below). Multiplexed assays were scaled on a per-TCR basis (for example 3 × 10^6 for each of three TCRs against 9 × 10^6 library cells). For single SABR assays, unless otherwise defined, 5 × 10^5 SABR expressing NFAT–GFP Jurkat cells (or 5KC cells) were labeled with CellTrace Violet (BioLegend) according to the manufacturer’s protocol before incubation with 5 × 10^5 TCR-expressing Jurkat cells (or 5KC cells) in a round-bottom 96-well plate for 16–20 h. Cells were stained with anti-CD69-APC-Cy7 when indicated and acquired on the Attune NxT flow cytometer (Thermo Fisher Scientific). All flow analysis was performed using FlowJo (BD). For Daudi cell co-culture, 1 × 10^6 Jurkat cells expressing the TCR of interest were incubated with 1 × 10^6 Daudi cells expressing a SABR of interest for 3 days. On day 3, cells were labeled with anti-RT1B-PE and anti-Fas-APC-Cy7 before being acquired on the Attune NxT flow cytometer.
# BDC2.5 TCR = test: I-Ag7 SABR-II library screen, enrichment score; format: cell-based, mouse; conditions: I-Ag7 library
# Excerpt: We then asked whether SABR-IIs could be used to present a library of epitopes for CD4^+ T cell antigen discovery. To that end, we constructed a SABR-II library to present epitopes derived from pancreatic islets in I-Ag7 by curating a list of 4,075 published epitopes from the Immune Epitope Database (iedb.org)[50] and a study by Wan et al.[51] (Supplementary Table 1). Of note, this defined library consisted of unmodified epitopes from endogenous proteins, synthetic mimotopes, deamidated epitopes and hybrid insulin peptides (HIPs) that arise from post-translational fusion and are not genetically encoded in vivo[52],[53]. The epitope library was inserted into the I-Ag7 SABR-II backbone through pooled oligonucleotide synthesis, amplification and ligation-free cloning (Extended Data Fig. 3a). The I-Ag7 SABR-II-library was then expressed in NFAT–GFP Jurkat cells. We confirmed that after sequencing, the library accounted for a mean of 708 reads per epitope (Extended Data Fig. 3b). As a proof of concept, we performed co-incubation assays with Jurkat cells expressing the BDC2.5 TCR and sorted the top 1–2% of GFP^+CD69^+ cells at a rate of ~20 min per replicate with three replicates per TCR. We extracted the genomic DNA from sorted cells, amplified the SABR portion of the integrated proviruses and subjected the amplicons to Illumina sequencing (Extended Data Fig. 3c,d). The 1–2% sort gate represents >50-fold enrichment of cognate epitopes with minimal loss of signal (Extended Data Fig. 3e–h). Sequence reads were aligned to the I-Ag7 SABR-II backbone and the corresponding epitopes were scored based on their read counts. For each TCR under investigation, an enrichment score (ES) was determined for all the epitopes in a library. In each experiment, three replicates of a sort with TCR-expressing Jurkat cells were performed and reads were counted post-sequencing. In addition, three replicates of the unsorted library were also sequenced. A linear regression model was built using the unsorted library counts and used to determine the expected abundance of each epitope in the library. The ES was calculated based on the difference between the measured and the expected abundance of each epitope on a per-TCR basis (Fig. 1e). Based on ES values, two quantitative thresholds were used to determine putative cognate epitopes of a given TCR. A high-confidence zone containing clear outliers with a high ES and a low-confidence zone containing weak outliers with a moderately high ES were determined (Fig. 1e). This two-tiered strategy was used to call putative hits from screens. All the top-scoring epitopes for the BDC2.5 TCR were known BDC2.5 ligands containing the WXRM(D/E) motif (Fig. 1f,g, enriched ligands in red), a well-characterized trait of the BDC2.5 TCR[43],[54]–[56]. Across several independent experiments there was limited variation in ES values for the same TCRs and several epitopes fell into high- or low-confidence zones consistently (Extended Data Fig. 4a). Using a different TCR that was isolated from NOD mice, 4-8Ins[57], which recognized the InsB9:23 epitope ([…]), we observed a similar pattern of ES for cognate epitopes (Extended Data Fig. 4b).
# For SABR library screens, 3 × 10^6 NFAT–GFP Jurkat cells expressing the SABR library were labeled with CellTrace Violet (BioLegend) according to the manufacturer’s protocol before incubation with 3 × 10^6 Jurkat cells expressing the TCR of interest. These mixtures were incubated in a six-well plate for 16–20 h. Cells were stained with anti-CD69-APC-Cy7 where indicated (BioLegend) and the top 1–2% of GFP^+CD69^+ cells were sorted for genomic DNA extraction, indexing and sequencing (see below). Multiplexed assays were scaled on a per-TCR basis (for example 3 × 10^6 for each of three TCRs against 9 × 10^6 library cells). […]
# TCR5 = test: Single SABR-II co-incubation, NFAT-GFP Jurkat; format: cell-based, mouse; conditions: TCR 5, Ext. Data Fig. 6C, 18-20 hr
# Excerpt: as §1, §2
# TCR3 = test: Single SABR-II co-incubation, NFAT-GFP Jurkat; format: cell-based, mouse; conditions: TCR 3, Fig 5C
# Excerpt: Given the predominance of HIP-reactive TCRs, we hypothesized that there may be other TCRs that respond to HIPs that were not encoded in our initial library configuration. While the initial I-Ag7 SABR-II library consisted of a number of HIPs, HIP formation is thought to be more widespread in pancreatic β-cells[52],[70]. Therefore, we sought to construct a defined, HIP-focused library to probe whether there were any undiscovered HIP-reactive TCRs that could be recognized by the clonally expanded TCR in our dataset. To test this, we utilized a published proteomic dataset, which predicted that several proteins that were highly expressed in secretory granules of β-cells may contribute to HIP formation. Using their predictions, we built a theoretical HIP library, in which all possible ‘left’ halves of the insulin C chain derived from natural cleavage products were fused to ‘right’ halves derived from secretory granule proteins (Fig. 5a). This 2,561-epitope library (12–25 amino acids per epitope) consisted of only HIPs and a small number of positive control epitopes (Supplementary Table 5). We screened the top three clonally expanded TCRs (TCR1, TCR2 and TCR3) against this library, as these TCRs had not been de-convoluted using the original library. […] To confirm that the HIP itself was important for the cognate interaction, we cloned single 14-mer epitopes into SABR-IIs consisting of seven amino acids of the left portion of the HIP and seven amino acids of the right portion of the HIP. In this way, no nine amino acids from either peptide sequence alone could occupy the binding pocket of I-Ag7, ensuring that TCR reactivity spanned the HIP junction. […] Of note, in all the epitopes that were tested, the ‘left’ half derived from insulin C was conserved, whereas the ‘right’ halves were derived from several other proteins (Fig. 5d). […] Moreover, the promiscuous binding of TCR3 to HIPs corroborates evidence from other NOD mouse-derived TCRs reacting to multiple HIPs[72].
# as §2
# TCR4 = test: Single SABR-II co-incubation, NFAT-GFP Jurkat; format: cell-based, mouse; conditions: TCR 4, Fig 5C
# Excerpt: as §1, §2
# [1] = Ext. Data Fig. 6C, 18-20 hr, technical replicate 1
# [2] = Ext. Data Fig. 6C, 18-20 hr, technical replicate 2
# [3] = EXPT1 of 8 biological experiments
Sequence,"%GFP+CD69+ cells of SABR-NFAT-GFP-Jurkat cells (Jurkat cells, No TCR; [1])","%GFP+CD69+ cells of SABR-NFAT-GFP-Jurkat cells (Jurkat cells, No TCR; [2])",Enrichment score (BDC2.5 TCR; [3]),Enrichment score (BDC2.5 TCR; EXPT2 of 8),Enrichment score (BDC2.5 TCR; EXPT3 of 8),Enrichment score (BDC2.5 TCR; EXPT4 of 8),Enrichment score (BDC2.5 TCR; EXPT5 of 8),Enrichment score (BDC2.5 TCR; EXPT6 of 8),Enrichment score (BDC2.5 TCR; EXPT7 of 8),Enrichment score (BDC2.5 TCR; EXPT8 of 8),%GFP+CD69+ cells of SABR-NFAT-GFP-Jurkat cells (TCR5; technical replicate 1),%GFP+CD69+ cells of SABR-NFAT-GFP-Jurkat cells (TCR5; technical replicate 2),"%GFP+CD69+ cells of SABR-NFAT-GFP-Jurkat cells (Jurkat cells, No TCR; Fig 5C, technical replicate 1)","%GFP+CD69+ cells of SABR-NFAT-GFP-Jurkat cells (Jurkat cells, No TCR; Fig 5C, technical replicate 2)",%GFP+CD69+ cells of SABR-NFAT-GFP-Jurkat cells (TCR3; technical replicate 1),%GFP+CD69+ cells of SABR-NFAT-GFP-Jurkat cells (TCR3; technical replicate 2),%GFP+CD69+ cells of SABR-NFAT-GFP-Jurkat cells (TCR4; technical replicate 1),%GFP+CD69+ cells of SABR-NFAT-GFP-Jurkat cells (TCR4; technical replicate 2)
EKAHHPIWARMDAKK,0.55%,0.54%,0.000952,0.00052,0.00087,0.00058,0.001178,0.001392,0.000919,0.000731,34.4%,35.1%,–,–,–,–,–,–
EKAHLAIWARMDAKK,0.84%,1%,–,–,–,–,–,–,–,–,79.9%,77.9%,–,–,–,–,–,–
EKAHVPIWARMDAKK,2.48%,2.95%,0.000866,0.000378,0.000722,0.00038,0.000744,0.001001,0.000451,0.000387,29.9%,30.2%,–,–,–,–,–,–
"EQLELGGHIEDSGE [14-mer hybrid insulin peptide spanning the fusion junction, TCR3 hit]",–,–,–,–,–,–,–,–,–,–,–,–,14.1%,13.9%,29.1%,28.9%,13.2%,14.3%
RLGLWSRMDQLAKELTAE,1.36%,1.22%,0.001771,0.001151,0.002655,0.001435,0.002428,0.00271,0.002468,0.002661,56.2%,56%,–,–,–,–,–,–
RRAGDLQTLWSRMDARR,0.37%,0.41%,0.002517,0.001322,0.002797,0.002419,0.002428,0.002187,0.002605,0.002542,22.4%,18.8%,–,–,–,–,–,–
SRLGLWSRMDQLAKELTAE,1.65%,1.6%,0.002042,0.001129,0.002688,0.002123,0.003298,0.002741,0.00232,0.003121,73.5%,71.6%,–,–,–,–,–,–
SRLGLWVRMEQLAKELTAE,1.58%,1.53%,0.001795,0.001184,0.002703,0.001978,0.002454,0.002768,0.002526,0.002128,21.9%,19.4%,–,–,–,–,–,–
